According to US20200283384A1, “ANTIBACTERIAL COMPOUNDS AND METHODS OF USE THEREOF” (Wayne State University, priority 2016, published 2020):
In brackets after ≈: the same amount, converted by molar mass.

System: Methicillin-resistant S. aureus strains; S. aureus (K1902)
Assay: MIC and SIC in 96 well microplates (plasmid curing study)
Assay type: cell-based, Staphylococcus aureus
Description: Plasmid curing activity of HN18 and HN34 was evaluated. Methicillin-resistant S. aureus strains were sub-cultured on blood agar plates to obtain isolated colonies, incubated at 35° C. in a CO2 incubator. The fresh overnight bacterial inoculum was prepared by re-suspending a few isolated colonies in a tube containing 5 ml of saline. […] The sub-inhibitory concentration (SIC) is defined as the concentration before MIC (in a serial dilution method where antibiotic concentration decreases by half from each tube to the next one).
Plasmid curing activity of HN18 and HN34 was also evaluated in S. aureus (K1902) which is known to harbor a 5 kb plasmid with a chloramphenicol resistance gene. Along with the KSA reference strain, the plasmid curing activity was repeated for SA1 and SA2 strains which are MRSA (Table 4).

[1] = Table 4, KSA (S. aureus K1902), experiment I
[2] = Table 4, KSA (S. aureus K1902), experiment II
[3] = Table 4, isolate SA1, experiment I
[4] = Table 4, isolate SA1, experiment II
[5] = Table 4, isolate SA2, experiment I
[6] = Table 4, isolate SA2, experiment II

Structure (SMILES) | SIC (Table 3, isolate SA1 (MRSA)) | SIC (Table 3, isolate SA2 (MRSA)) | SIC (Table 3, isolate SA3 (MRSA)) | SIC (Table 3, isolate SA4 (MRSA)) | SIC (Table 3, isolate SA5 (MRSA)) | SIC (Table 3, isolate SA6 (MRSA)) | SIC (Table 3, isolate SA7 (MRSA)) | SIC (Table 3, isolate SA8 (MRSA)) | MIC [1] | SIC [1] | MIC [2] | SIC [2] | MIC [3] | SIC [3] | MIC [4] | SIC [4] | SIC [5] | MIC [6] | SIC [6] | MIC [5]
Fc1ccc(C(C2=CNC3C=CC=CC23)C2=C3C=CC=CC3NC2)cc1F (centres unmarked) [HN18, 3-((3,4-difluorophenyl)(2,7a-dihydro-1H-indol-3-yl)methyl)-3a,7a-dihydro-1H-indole] | 0.5 µg/mL | 1.0 µg/mL | 1.0 µg/mL | 0.5 µg/mL | 1.0 µg/mL | 0.5 µg/mL | 0.5 µg/mL | 1.0 µg/mL | 2 µg/mL (≈ 5.52 µM) | 1 µg/mL | 2 µg/mL (≈ 5.52 µM) | 1 µg/mL | 2 µg/mL (≈ 5.52 µM) | 1 µg/mL | 2 µg/mL (≈ 5.52 µM) | 1 µg/mL | 1 µg/mL | 2 µg/mL (≈ 5.52 µM) | 1 µg/mL | –
Cc1[nH]c2ccccc2c1C(c1ccc(F)c(F)c1)c1c(C)[nH]c2ccccc12 [HN34] | 1 µg/mL | 1 µg/mL | 1 µg/mL | 1 µg/mL | 1 µg/mL | 0.5 µg/mL | 0.5 µg/mL | 1 µg/mL | 2 µg/mL (≈ 5.18 µM) | 1 µg/mL | 2 µg/mL (≈ 5.18 µM) | 1 µg/mL | – | 1 µg/mL | 2 µg/mL (≈ 5.18 µM) | 1 µg/mL | 1 µg/mL | 2 µg/mL (≈ 5.18 µM) | 1 µg/mL | 2 µg/mL (≈ 5.18 µM)
